For 47 compounds, CC50 results are on record in ChEMBL document CHEMBL4118188, “A small diversity library of α-methyl amide analogs of sulindac for probing anticancer structure-activity relationships” (Bioorg Med Chem Lett, 2018).

Holding throughout (assay type): functional
Test [1] concerns PC-3. As to the kind of experiment: Growth inhibition of human PC3 cells measured after 72 hrs by Celltiter-Glo reagent based assay. As to conditions: PC-3, 72 h.
Test [2] has as its system HT-29. As to the kind of experiment: Growth inhibition of human HT-29 cells measured after 72 hrs by Celltiter-Glo reagent based assay. Conditions: HT-29, 72 h.
Test [3] deals with MDA-MB-231. As to the kind of experiment: Growth inhibition of human MDA-MB-231 cells measured after 96 hrs by Celltiter-Glo reagent based assay. Conditions: MDA-MB-231, 96 h. On the technique in general: ATP-based viability assays read luminescence as a measure of living cells.

As to `CC1=C(C(C)C(=O)NCCN2CCCC2)c2cc(F)ccc2/C1=C\c1ccc([S+](C)[O-])cc1` (stereo unspecified), the CC50 was found to be 31.9 µM in test [1], 13.7 µM in test [2] and 39.2 µM in test [3].

On to `CC1=C(C(C)C(=O)N2CCN(CCCN(C)C)CC2)c2cc(F)ccc2/C1=C\c1ccc([S+](C)[O-])cc1` (stereo unspecified), for which the CC50 was more than 50 µM in test [1], 32 µM in test [2] and more than 50 µM in test [3].

For `CC1=C(C(C)C(=O)N(C)CCCN(C)C)c2cc(F)ccc2/C1=C\c1ccc([S+](C)[O-])cc1` (stereo unspecified), the figures for the CC50 in test [1], in test [2] and in test [3] were more than 50 µM, 16.6 µM and more than 50 µM, respectively.

In the case of `CCN(CC)CCCNC(=O)C(C)C1=C(C)/C(=C/c2ccc([S+](C)[O-])cc2)c2ccc(F)cc21` (stereo unspecified), the CC50 is more than 50 µM in test [1], 15.5 µM in test [2] and more than 50 µM in test [3].

On to `CC1=C(C(C)C(=O)N2CCN(c3ccncc3)CC2)c2cc(F)ccc2/C1=C\c1ccc([S+](C)[O-])cc1` (stereo unspecified), for which the CC50 in test [1] turned out to be 10.5 µM; in test [2], 4.99 µM; in test [3] it was 19.6 µM.

As to `CCNCCCN(CC)C(=O)C(C)C1=C(C)/C(=C/c2ccc([S+](C)[O-])cc2)c2ccc(F)cc21` (stereo unspecified), the CC50 in test [1] is 24.8 µM; in test [2] it was 6.98 µM; in test [3] it was 25.6 µM.

As for `CCN1CCC[C@H]1CNC(=O)C(C)C1=C(C)/C(=C/c2ccc(SC)cc2)c2ccc(F)cc21` (stereo partly specified), the CC50 came to 4.24 µM in test [1], 1.1 µM in test [2] and 3.49 µM in test [3].

Regarding `CC1=C(C(C)C(=O)N2CCC[C@H]2CN2CCCC2)c2cc(F)ccc2/C1=C\c1ccc([S+](C)[O-])cc1` (stereo partly specified), the values for the CC50 in test [1], in test [2] and in test [3] were 24.4 µM, 7.82 µM and 32 µM, respectively.

As for `CSc1ccc(/C=C2/C(C)=C(C(C)C(=O)N3CCN(CCCN(C)C)CC3)c3cc(F)ccc32)cc1` (stereo unspecified), the CC50 was found to be 4.14 µM in test [1], 1.5 µM in test [2] and 3.06 µM in test [3].

With `CCN(CC)CCN(CC)C(=O)C(C)C1=C(C)/C(=C/c2ccc(SC)cc2)c2ccc(F)cc21` (stereo unspecified), the CC50 was found to be 6.59 µM in test [1], 2.31 µM in test [2] and 5.98 µM in test [3].

`COC(=O)[C@H](Cc1c[nH]cn1)NC(=O)C(C)C1=C(C)/C(=C/c2ccc([S+](C)[O-])cc2)c2ccc(F)cc21` (stereo partly specified): the CC50 in test [1], in test [2] and in test [3] was more than 50 µM each time.

For `CSc1ccc(/C=C2/C(C)=C(C(C)C(=O)N(C)CCN(C)C)c3cc(F)ccc32)cc1` (stereo unspecified), the CC50 was found to be 5.55 µM in test [1], 1.43 µM in test [2] and 3.66 µM in test [3].

Take `CCN(CCN(C)C)C(=O)C(C)C1=C(C)/C(=C/c2ccc([S+](C)[O-])cc2)c2ccc(F)cc21` (stereo unspecified): the CC50 in test [1] was determined as 28.1 µM; in test [2], 9.51 µM; in test [3], 32 µM.

Regarding `CSc1ccc(/C=C2/C(C)=C(C(C)C(=O)N(C)CCN(C)C(=O)C3CCCN3)c3cc(F)ccc32)cc1` (single isomer, unassigned), the CC50 in test [1] came out at 5.21 µM; in test [2], 2.06 µM; in test [3], 3.99 µM.

`CCN(CC)CCNC(=O)C(C)C1=C(C)/C(=C/c2ccc([S+](C)[O-])cc2)c2ccc(F)cc21` (stereo unspecified): the CC50 is 40 µM in test [1], 11.1 µM in test [2] and 36.6 µM in test [3].

Regarding `CC1=C(C(C)C(=O)N(C)CCN(C)C(=O)[C@@H]2CCCN2)c2cc(F)ccc2/C1=C\c1ccc([S+](C)[O-])cc1` (stereo partly specified), the results for the CC50 in test [1], in test [2] and in test [3] were 27.9 µM, 20.1 µM and more than 50 µM, respectively.

As to `CC1=C(C(C)C(=O)NCCN2CCCCC2)c2cc(F)ccc2/C1=C\c1ccc([S+](C)[O-])cc1` (stereo unspecified), the results for the CC50 in test [1], in test [2] and in test [3] were 36.3 µM, 9.67 µM and 39.3 µM, respectively.

Regarding `CCN(CC)CCN(CC)C(=O)C(C)C1=C(C)/C(=C/c2ccc([S+](C)[O-])cc2)c2ccc(F)cc21` (stereo unspecified), the CC50 was determined as 19.7 µM in test [1], 4.45 µM in test [2] and 23.5 µM in test [3].

In the case of `CSc1ccc(/C=C2/C(C)=C(CC(=O)NCCN(C)C)c3cc(F)ccc32)cc1`, the CC50 in test [1] was 3.12 µM; in test [2] it was 0.65 µM; in test [3] it was 2.67 µM.

`CC1=C(C(C)C(=O)N(CCCNC(C)C)C(C)C)c2cc(F)ccc2/C1=C\c1ccc([S+](C)[O-])cc1` (stereo unspecified): the figures for the CC50 in test [1], in test [2] and in test [3] were 15.7 µM, 7.13 µM and 23 µM, respectively.

For `CC1=C(C(C)C(=O)NCCCN(C)C)c2cc(F)ccc2/C1=C\c1ccc([S+](C)[O-])cc1` (stereo unspecified), the CC50 is more than 50 µM in test [1], 22.5 µM in test [2] and more than 50 µM in test [3].

For `COc1cc(/C=C2/C(C)=C(C(C)C(=O)N3CCN(CCCN(C)C)CC3)c3cc(F)ccc32)cc(OC)c1OC` (stereo unspecified), the CC50 in test [1] was 9.61 µM; in test [2] it was 3.69 µM; in test [3], 7.34 µM.

`CC1=C(C(C)C(=O)N2CCC(N3CCCCC3)CC2)c2cc(F)ccc2/C1=C\c1ccc([S+](C)[O-])cc1` (stereo unspecified): the results for the CC50 in test [1], in test [2] and in test [3] were more than 50 µM, 48.4 µM and more than 50 µM, respectively.

For the compound `CC1=C(C(C)C(=O)NCc2ccco2)c2cc(F)ccc2/C1=C\c1ccc([S+](C)[O-])cc1` (stereo unspecified), the CC50 in test [1], in test [2] and in test [3] was more than 50 µM throughout.

On to `CNCCCN(C)C(=O)C(C)C1=C(C)/C(=C/c2ccc(SC)cc2)c2ccc(F)cc21` (stereo unspecified), for which the values for the CC50 in test [1], in test [2] and in test [3] were 4.96 µM, 1.98 µM and 3.83 µM, respectively.

Consider `COC(=O)[C@@H](Cc1c[nH]cn1)NC(=O)C(C)C1=C(C)/C(=C/c2ccc(SC)cc2)c2ccc(F)cc21` (stereo partly specified), for which the cytotoxic concentration (CC50) in test [1] stood at 16.8 µM; in test [2], 10.7 µM; in test [3], 15 µM.

As for `CCN(CC)CCN(C)C(=O)C(C)C1=C(C)/C(=C/c2ccc([S+](C)[O-])cc2)c2ccc(F)cc21` (stereo unspecified), the CC50 in test [1] was 29.3 µM; in test [2], 5.83 µM; in test [3] it was more than 50 µM.

Take `CNCCN(C)C(=O)C(C)C1=C(C)/C(=C/c2ccc([S+](C)[O-])cc2)c2ccc(F)cc21` (stereo unspecified): the results for the CC50 in test [1], in test [2] and in test [3] were 27.9 µM, 10.7 µM and more than 50 µM, respectively.

As for `CSc1ccc(/C=C2/C(C)=C(C(C)C(=O)NCc3ccccc3)c3cc(F)ccc32)cc1` (stereo unspecified), the results for the CC50 in test [1], in test [2] and in test [3] were more than 50 µM, 22.9 µM and more than 50 µM, respectively.

As for `COc1cc(/C=C2/C(C)=C(C(C)C(=O)NCc3ccco3)c3cc(F)ccc32)cc(OC)c1OC` (stereo unspecified), the values for the CC50 in test [1], in test [2] and in test [3] were 3.88 µM, 2.88 µM and 5.51 µM, respectively.

Regarding `CC1=C(C(C)C(=O)NCc2ccccc2)c2cc(F)ccc2/C1=C\c1ccc([S+](C)[O-])cc1` (stereo unspecified), the CC50 was determined as 15.7 µM in test [1], 17.2 µM in test [2] and 26 µM in test [3].

Regarding `CSc1ccc(/C=C2/C(C)=C(C(C)C(=O)NCCCN(C)C)c3cc(F)ccc32)cc1` (stereo unspecified), the CC50 in test [1] was 7.24 µM; in test [2], 2.58 µM; in test [3] it was 6.42 µM.

As for `CCNCCCN(CC)C(=O)C(C)C1=C(C)/C(=C/c2ccc(SC)cc2)c2ccc(F)cc21` (stereo unspecified), the CC50 in test [1] is 4.6 µM; in test [2], 2.01 µM; in test [3] it was 3.97 µM.

Turning to `CC1=C(C(C)C(=O)N(C)CCN(C)C(=O)[C@@H](N)C(C)C)c2cc(F)ccc2/C1=C\c1ccc([S+](C)[O-])cc1` (stereo partly specified), the CC50 in test [1] turned out to be 28.8 µM; in test [2], 26 µM; in test [3] it was 47.6 µM.

Turning to `CCN1CCC[C@H]1CNC(=O)C(C)C1=C(C)/C(=C/c2ccc([S+](C)[O-])cc2)c2ccc(F)cc21` (stereo partly specified), the values for the CC50 in test [1], in test [2] and in test [3] were 41.5 µM, 9.35 µM and 24.9 µM, respectively.

Regarding `CCNCCN(CC)C(=O)C(C)C1=C(C)/C(=C/c2ccc([S+](C)[O-])cc2)c2ccc(F)cc21` (stereo unspecified), the cytotoxic concentration (CC50) amounted to 26.3 µM in test [1], 9.99 µM in test [2] and 27.9 µM in test [3].

For `CNCCN(C)C(=O)C(C)C1=C(C)/C(=C/c2ccc(SC)cc2)c2ccc(F)cc21` (stereo unspecified), the CC50 in test [1] amounted to 4.06 µM; in test [2], 1.31 µM; in test [3] it was 3.21 µM.

For the compound `CC1=C(C(C)C(=O)N(C)CCN(C)C)c2cc(F)ccc2/C1=C\c1ccc([S+](C)[O-])cc1` (stereo unspecified), the CC50 in test [1] was 44.6 µM; in test [2], 11.8 µM; in test [3], more than 50 µM.

In the case of `CC1=C(C(C)C(=O)N2CCN(CCN(C)C)CC2)c2cc(F)ccc2/C1=C\c1ccc([S+](C)[O-])cc1` (stereo unspecified), the CC50 in test [1] was 50 µM; in test [2] it was 38.4 µM; in test [3], more than 50 µM.

Consider `CSc1ccc(/C=C2/C(C)=C(C(C)C(=O)NCCN3CCCCC3)c3cc(F)ccc32)cc1` (stereo unspecified), for which the CC50 was found to be 5.06 µM in test [1], 2.03 µM in test [2] and 5.32 µM in test [3].

On to `CSc1ccc(/C=C2/C(C)=C(C(C)C(=O)N3CCC(N4CCCCC4)CC3)c3cc(F)ccc32)cc1` (stereo unspecified), for which the CC50 in test [1] was 4.36 µM; in test [2], 1.89 µM; in test [3], 4.3 µM.

Turning to `CCNCCN(CC)C(=O)C(C)C1=C(C)/C(=C/c2ccc(SC)cc2)c2ccc(F)cc21` (stereo unspecified), the CC50 in test [1] came to 3.26 µM; in test [2], 1.3 µM; in test [3], 2.51 µM.

With `CSc1ccc(/C=C2/C(C)=C(C(C)C(=O)NCc3ccco3)c3cc(F)ccc32)cc1` (stereo unspecified), the CC50 in test [1] turned out to be 23.5 µM; in test [2], 11.2 µM; in test [3], 26.1 µM.

For `CC1=C(C(C)C(=O)NCCN(C)C)c2cc(F)ccc2/C1=C\c1ccc([S+](C)[O-])cc1` (stereo unspecified), the CC50 was more than 50 µM in test [1], 12.7 µM in test [2] and more than 50 µM in test [3].

As to `COC(=O)[C@H](Cc1c[nH]cn1)NC(=O)C(C)C1=C(C)/C(=C/c2ccc(SC)cc2)c2ccc(F)cc21` (stereo partly specified), the CC50 is 14.4 µM in test [1], 6.62 µM in test [2] and 12.7 µM in test [3].

In the case of `CNCCCN(C)C(=O)C(C)C1=C(C)/C(=C/c2ccc([S+](C)[O-])cc2)c2ccc(F)cc21` (stereo unspecified), the CC50 came out at 33.7 µM in test [1], 10.5 µM in test [2] and 36.8 µM in test [3].

With `CCN(CC)CCN(C)C(=O)C(C)C1=C(C)/C(=C/c2ccc(SC)cc2)c2ccc(F)cc21` (stereo unspecified), the CC50 in test [1] came to 7.27 µM; in test [2], 2.22 µM; in test [3], 6.71 µM.

As a reminder, the CC50 is the concentration at which the toxic effect on the cells reaches its halfway point. Low values mean harm at low concentration, high ones better tolerance by the cells.
